Laboratory results taken from PMC11389776, “Positive allosteric modulation of a GPCR ternary complex” (Science Advances, 2024).

How the values were obtained:
[1] = molecular target: M2ΔICL3 mAChR (Flag-M2ΔICL3-His) reconstituted into cMSP1D1 nanodiscs (human) (UniProt P08172)
[2] = molecular target: M2ΔICL3 mAChR (Flag-M2ΔICL3-His) reconstituted into cMSP1D1 nanodiscs (human) (UniProt P08172); assay: radioligand binding; Gi1 heterotrimer titrated (R:G ratios plotted as molar concentration) against a KD concentration of [3H]-NMS at M2 mAChR nanodiscs; affinity for the NMS-bound receptor from the allosteric ternary complex model (ATCM); 20 mM Hepes pH 7.5, 100 mM NaCl, 10 mM MgCl2, 0.5% BSA; 6 hours at RT; filtration; conditions: scale: negative logarithm of the equilibrium dissociation constant
M2 mAChR [3] = molecular target: T1, M2 mAChR (Homo sapiens, UniProt P08172, DEL226-389); assay: [3H]-NMS competition binding at M2 mAChR nanodiscs with or without Gi1 protein; conditions: 1:2000 molar ratio M2 mAChR:G protein, [3H]-NMS competition binding
T1 construct: made in house; host or cells: Sf9 insect cells (receptor, baculovirus); Trichoplusia ni Hi5 cells (G protein); E. coli BL21(DE3) (cMSP1D1 scaffold)
T1 sequence (P08172 with tags, fused parts or gaps DEL226-389): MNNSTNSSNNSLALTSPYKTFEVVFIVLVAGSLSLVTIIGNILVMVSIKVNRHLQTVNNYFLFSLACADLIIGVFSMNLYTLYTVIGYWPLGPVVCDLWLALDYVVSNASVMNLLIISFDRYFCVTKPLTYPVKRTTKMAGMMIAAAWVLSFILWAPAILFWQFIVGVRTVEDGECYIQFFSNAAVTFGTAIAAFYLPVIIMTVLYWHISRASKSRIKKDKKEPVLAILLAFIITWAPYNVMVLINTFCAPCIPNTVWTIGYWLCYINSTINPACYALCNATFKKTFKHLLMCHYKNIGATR
Procedure: (§1) The affinity of [^3H]-NMS for M2 mAChR in nanodiscs, as well as the concentration of receptor in nanodiscs, was determined through saturation binding with [^3H]-NMS. M2 nanodiscs were incubated with a range of concentrations of [^3H] […] Membrane equilibrium binding experiments were performed with 15 μg of membrane expressing the WT hM2 mAChR in a 300-μl reaction volume of binding buffer with or without 100 μM Gpp[NH]pp in deep 96-well plates for 6 hours at RT. […] For all radioligand binding experiments, nonspecific binding was defined by 10 μM Atr and the assay was terminated through rapid filtration through Whatman GF/B filter plates using a 96-well harvester (PerkinElmer). Filter plates were dried overnight, and radioactivity was determined by adding 40 μl of MicroScint-O scintillation fluid and counting in a MicroBeta^2 Plate Counter (PerkinElmer Life Sciences).
(§2) All data were analyzed using GraphPad Prism 9 (GraphPad Software, San Diego, CA). […] For competition binding experiments between [^3H]-NMS and a range of concentrations of unlabeled orthosteric agonist at M2 mAChR nanodiscs in the presence of G protein and for competition binding at M2 mAChR membranes, data were fit to a two-site competition binding model or a one-site competition binding model. […] Monoexponential decay and one-phase association equations were fit to the radioligand dissociation and association data at M2 mAChR nanodiscs.

M2 mAChR [4] = molecular target: T2, M2 mAChR (Homo sapiens, UniProt P08172); assay: Gi1 (TRUPATH) protein activation assay in M2 mAChR FlpIn CHO cells; assay type: cell-based; conditions: operational efficacy, operational model of agonism; LY211 value is an estimate (saturation not reached)
T2 construct: expressed in transfected cells
T2 sequence (P08172 1-466): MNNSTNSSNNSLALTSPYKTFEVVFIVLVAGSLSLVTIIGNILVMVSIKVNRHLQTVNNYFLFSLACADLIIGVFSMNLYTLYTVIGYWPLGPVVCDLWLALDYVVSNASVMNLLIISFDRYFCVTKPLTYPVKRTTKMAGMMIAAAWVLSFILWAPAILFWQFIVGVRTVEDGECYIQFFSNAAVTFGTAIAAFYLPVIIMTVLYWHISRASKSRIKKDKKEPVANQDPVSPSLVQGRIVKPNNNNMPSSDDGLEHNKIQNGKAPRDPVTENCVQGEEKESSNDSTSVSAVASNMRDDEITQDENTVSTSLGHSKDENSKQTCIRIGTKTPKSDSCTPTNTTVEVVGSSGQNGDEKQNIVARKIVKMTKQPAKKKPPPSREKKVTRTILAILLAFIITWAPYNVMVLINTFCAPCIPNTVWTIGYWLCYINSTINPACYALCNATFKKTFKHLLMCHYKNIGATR
Procedure: Upon 60 to 80% confluence, WT hM2 mAChR expressing FlpIn CHO cells were transfected transiently using polyethylenimine (Sigma-Aldrich) with 10 ng per well of each the G protein TRUPATH biosensors pcDNA5/FRT/TO-Gαi1-RLuc8/pcDNA3.1-β3/pcDNA3.1-Gγ9-GFP2 giving a ratio of 1:1:1 ratio with 30 ng in total. Cells were plated at 30,000 cells per well into 96-well Greiner CELLSTAR white-walled plates (Sigma-Aldrich). Forty-eight hours later, cells were washed with 200 μl of PBS and replaced with 1x Hanks’ balanced salt solution supplemented with 10 mM Hepes. […] The ratio was vehicle corrected using the initial four baseline measurements and then baseline corrected again using the vehicle-treated wells. Concentration-response curves were constructed from the area under the curve (AUC) of the double baseline-corrected kinetic traces and normalized to the highest AUC value in each dataset.
as §2

M2 mAChR [5] = molecular target: T2, M2 mAChR; assay: Kinetic Gαi1 (TRUPATH) protein activation assay in M2 mAChR CHO cells; assay type: cell-based; conditions: saturating amount of drug alone
Procedure: Upon 60 to 80% confluence, WT hM2 mAChR expressing FlpIn CHO cells were transfected transiently using polyethylenimine (Sigma-Aldrich) with 10 ng per well of each the G protein TRUPATH biosensors pcDNA5/FRT/TO-Gαi1-RLuc8/pcDNA3.1-β3/pcDNA3.1-Gγ9-GFP2 giving a ratio of 1:1:1 ratio with 30 ng in total. Cells were plated at 30,000 cells per well into 96-well Greiner CELLSTAR white-walled plates (Sigma-Aldrich). Forty-eight hours later, cells were washed with 200 μl of PBS and replaced with 1x Hanks’ balanced salt solution supplemented with 10 mM Hepes. […] Cells were further incubated for 10 min at 25°C before BRET measurements were performed on a PHERAstar FSX plate reader (BMG Labtech) using 410/80-nm and 515/30-nm filters. […] The BRET signal was calculated as the ratio of 515/30-nm emission over 410/80-nm emission. The ratio was vehicle corrected using the initial four baseline measurements and then baseline corrected again using the vehicle-treated wells. Concentration-response curves were constructed from the area under the curve (AUC) of the double baseline-corrected kinetic traces and normalized to the highest AUC value in each dataset.
All data were analyzed using GraphPad Prism 9 (GraphPad Software, San Diego, CA). Concentration-response curves were fit with a three-parameter logistic equation to quantify potency (pEC50) and an operational model of agonism to derive an efficacy parameter (log τ) ([69]). […] For competition binding experiments between [^3H]-NMS and a range of concentrations of unlabeled orthosteric agonist at M2 mAChR nanodiscs in the presence of G protein and for competition binding at M2 mAChR membranes, data were fit to a two-site competition binding model or a one-site competition binding model. […] Monoexponential decay and one-phase association equations were fit to the radioligand dissociation and association data at M2 mAChR nanodiscs. Kinetic TRUPATH data were analyzed using a “baseline then rise to steady state with drift” equation ([44]).

M2 mAChR [6] = molecular target: T1, M2 mAChR; assay: [3H]-NMS interaction binding with LY211 and/or G protein at M2 mAChR nanodiscs (full interaction and titration)
Procedure: as §1, §2

WT G protein heterotrimer Gαi1β1γ2 (from UniProt P63096 1-354; P62873 1-340; P59768 1-71) (complex)
FracHi: fraction of receptors in the high-affinity state for ACh, [3H]-NMS competition binding at M2 mAChR nanodiscs, receptor:G protein molar ratio 1:0 to 1:2000 (highest at 1:2000) [1]: 1
FracHi: fraction of receptors in the high-affinity state for Ipx, [3H]-NMS competition binding at M2 mAChR nanodiscs, receptor:G protein molar ratio 1:0 and 1:500 to 1:2000 (highest at 1:2000) [1]: 0.91
FracHi: fraction of receptors in the high-affinity state for Pilo, [3H]-NMS competition binding at M2 mAChR nanodiscs, receptor:G protein molar ratio 1:0 and 1:500 to 1:2000 (highest at 1:2000) [1]: 0.73
pKB [2]: 7.37

Gq: purified heterotrimeric G protein, Gq α subunit with Gβ1γ2
effect of G protein heterotrimer on ACh affinity (M2 mAChR [3]): could not mediate any change in ACh affinity

Cc1c(Cl)c(OCC(=O)N2CCN(C)CC2)nc2sc(C(=O)NC3CC3)c(N)c12 [LY211, LY2119620]
Log τ (M2 mAChR [4]): 0.75 ± 0.12 (4)
Steady state (M2 mAChR [5]; final effect level, normalized to ACh): 69.1 ± 4.22 (3)
Initial rate (M2 mAChR [5]; baseline then rise to steady state with drift model): 198 ± 51.0 (3) BRET units min^−1
(LY211) - Log αAgonist (M2 mAChR [6]; Full interaction ACh–LY211, + 1:2000 G protein heterotrimer, not different from zero (F test), constrained to zero): 0
(LY211) - Log α[3H]-NMS (M2 mAChR [6]; Full interaction with ACh, + 1:2000 G protein heterotrimer, ATCM): −0.37 ± 0.04 (4)
Log α[3H]-NMS (M2 mAChR [6]; Titration against KD concentration of [3H]-NMS, ATCM): −0.19 ± 0.08 (3)
Log α[3H]-NMS (M2 mAChR [6]; Titration against [3H]-NMS, + 1:2000 G protein heterotrimer, ATCM): −0.81 ± 0.20 (3)
increase in the affinity of LY211 in the presence of G protein (M2 mAChR [6]; titration against [3H]-NMS, with vs without saturating Gi1): sixfold
